# What was measured:
# Format in all cases: functional
# SW-620 [1] = assay: Antitumor activity against human SW620 cells at 50 uM after 48 hrs by Sulforhodamine assay; conditions: SW-620, 48 h, read-out: GI
# A549 [2] = assay: Antitumor activity against human A549 cells at 50 uM after 48 hrs by Sulforhodamine assay; conditions: A549, 48 h, read-out: GI
# HCT-15 [3] = assay: Antitumor activity against human HCT15 cells at 50 uM after 48 hrs by Sulforhodamine assay; conditions: HCT-15, 48 h, read-out: GI
# IMR-32 [4] = assay: Antitumor activity against human IMR32 cells at 50 uM after 48 hrs by Sulforhodamine assay; conditions: IMR-32, 48 h, read-out: GI
# IGROV-1 [5] = assay: Antitumor activity against human IGROV1 cells at 50 uM after 48 hrs by Sulforhodamine assay; conditions: IGROV-1, 48 h, read-out: GI
# IMR-32 [6] = assay: Antitumor activity against human IMR32 cells at 1 uM after 48 hrs by Sulforhodamine assay; conditions: IMR-32, 48 h, read-out: GI
# SW-620 [7] = assay: Antitumor activity against human SW620 cells at 20 uM after 48 hrs by Sulforhodamine assay; conditions: SW-620, 48 h, read-out: GI
# HCT-15 [8] = assay: Antitumor activity against human HCT15 cells at 20 uM after 48 hrs by Sulforhodamine assay; conditions: HCT-15, 48 h, read-out: GI
# A549 [9] = assay: Antitumor activity against human A549 cells at 10 uM after 48 hrs by Sulforhodamine assay; conditions: A549, 48 h, read-out: GI
# IGROV-1 [10] = assay: Antitumor activity against human IGROV1 cells at 10 uM after 48 hrs by Sulforhodamine assay; conditions: IGROV-1, 48 h, read-out: GI
SMILES,inhibition of growth at 50 µM (SW-620 [1]) [%],inhibition of growth at 50 µM (A549 [2]) [%],inhibition of growth at 50 µM (HCT-15 [3]) [%],inhibition of growth at 50 µM (IMR-32 [4]) [%],inhibition of growth at 50 µM (IGROV-1 [5]) [%],other results
C[C@@H]1CC[C@H]2[C@@H](C)C(=O)O[C@@H]3O[C@@]4(C)OO[C@@]32[C@H]1C[C@H]4O,0,18,28,20,3,
CC(=O)O[C@H]1C[C@H]2[C@H](C)CC[C@H]3[C@@H](C)C(=O)O[C@@H]4O[C@@]1(C)OO[C@]423,0,28,32,31,10,
C[C@@H]1CC[C@H]2[C@@H](C)C(=O)O[C@@H]3O[C@@]4(C)CC[C@@H]1[C@]32OO4 [ARTEMISININ],35,29,31,23,26,
COc1cccc2c1C(=O)c1c(O)c3c(c(O)c1C2=O)C[C@@](O)(C(=O)CO)C[C@@H]3O[C@H]1C[C@H](N)[C@H](O)[C@H](C)O1 [DOXORUBICIN],,,,,,inhibition of growth at 1 µM (IMR-32 [6]): 72%
O=c1[nH]cc(F)c(=O)[nH]1 [FLUOROURACIL],,,,,,inhibition of growth at 20 µM (SW-620 [7]): 54%; inhibition of growth at 20 µM (HCT-15 [8]): 49%
CC(=O)O[C@H]1C(=O)[C@@]2(C)[C@H]([C@H](OC(=O)c3ccccc3)[C@]3(O)C[C@H](OC(=O)[C@H](O)[C@@H](NC(=O)c4ccccc4)c4ccccc4)C(C)=C1C3(C)C)[C@]1(OC(C)=O)CO[C@@H]1C[C@@H]2O [PACLITAXEL],,,,,,inhibition of growth at 10 µM (A549 [9]): 52%; inhibition of growth at 10 µM (IGROV-1 [10]): 56%
